Test results published in ChEMBL document CHEMBL1201862, “PubChem BioAssay data set” (2004).
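Compound exposure: 48 hours, 5 concentrations, 96-well plates. The concentration for 50% growth inhibition is given as GI50.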 Calls of active or inactive are those of the source. No stated cut-off is given here; in the data, active = GI50 up to about 1.1 µM and inactive = higher.

Legend:
Assay in all cases: inhibition of tumour cell growth, NCI panel, 48 h
IGROV-1 = system: IGROV-1
TK-10 = system: TK-10
SK-OV-3 = system: SK-OV-3
NCI-H23 = system: NCI-H23
SNB-19 = system: SNB-19
HT-29 = system: HT-29
HOP-62 = system: HOP-62
SF-268 = system: SF-268
RPMI-8226 = system: RPMI-8226
OVCAR-8 = system: OVCAR-8
OVCAR-3 = system: OVCAR-3
HOP-92 = system: HOP-92
U-251 = system: U-251
SF-295 = system: SF-295
NCI-H226 = system: NCI-H226
SW-620 = system: SW-620
CAKI-1 = system: CAKI-1
UACC-257 = system: UACC-257
SF-539 = system: SF-539

Measured: GI50

O=S(=O)(O)c1cc(S(=O)(=O)O)c2c(/N=N/c3ccccc3)c(O)ccc2c1
inactive: IGROV-1 > 100 µM | TK-10 > 100 µM | SK-OV-3 > 100 µM | NCI-H23 > 100 µM | SNB-19 > 100 µM | HT-29 > 100 µM | HOP-62 > 100 µM | SF-268 > 100 µM | RPMI-8226 > 100 µM | OVCAR-8 > 100 µM | OVCAR-3 > 100 µM | HOP-92 > 100 µM | U-251 > 100 µM | SF-295 > 100 µM | NCI-H226 > 100 µM | SW-620 > 100 µM | CAKI-1 > 100 µM | UACC-257 > 100 µM

CC1CC(=O)C2CC(CO)=CCCC2C1(C)CC/C(=C/CO)CO (stereo not drawn)
inactive: IGROV-1 > 100 µM | TK-10 > 100 µM | SK-OV-3 > 100 µM | NCI-H23 > 100 µM | HT-29 > 100 µM | RPMI-8226 > 100 µM | OVCAR-8 > 100 µM | OVCAR-3 > 100 µM | HOP-92 > 100 µM | U-251 > 100 µM | SF-295 > 100 µM | NCI-H226 > 100 µM | SW-620 > 100 µM | CAKI-1 > 100 µM | UACC-257 > 100 µM

CCOC(O)(NC(=O)C(C(F)(F)F)C(F)(F)F)C(F)(F)F (stereo not drawn)
inactive: IGROV-1 > 100 µM | TK-10 > 100 µM | NCI-H23 > 100 µM | SNB-19 > 100 µM | HT-29 > 100 µM | SF-268 > 100 µM | RPMI-8226 > 100 µM | OVCAR-8 > 100 µM | U-251 > 100 µM | SW-620 > 100 µM | SF-539 > 100 µM | UACC-257 > 100 µM

Cn1cc(-c2ccc3c4ccccc4n(C)c3c2)c2ccccc21
inactive: IGROV-1 > 100 µM | TK-10 > 100 µM | SK-OV-3 > 100 µM | NCI-H23 > 100 µM | SNB-19 > 100 µM | HT-29 89.9 µM | HOP-62 > 100 µM | SF-268 > 100 µM | RPMI-8226 > 100 µM | OVCAR-8 > 100 µM | OVCAR-3 > 100 µM | U-251 > 100 µM | SF-295 94.4 µM | NCI-H226 > 100 µM | SW-620 > 100 µM | CAKI-1 > 100 µM | SF-539 > 100 µM | UACC-257 > 100 µM

C1CCN2CC3CONC3C2C1 (stereo not drawn)
inactive: IGROV-1 > 100 µM | TK-10 > 100 µM | NCI-H23 > 100 µM | SNB-19 > 100 µM | HT-29 > 100 µM | HOP-62 > 100 µM | SF-268 > 100 µM | RPMI-8226 > 100 µM | OVCAR-8 > 100 µM | OVCAR-3 > 100 µM | U-251 > 100 µM | SF-295 > 100 µM | NCI-H226 > 100 µM | SW-620 > 100 µM | CAKI-1 > 100 µM | SF-539 > 100 µM | UACC-257 > 100 µM

CCOC(=O)CSc1cc[nH]c(=O)n1
inactive: IGROV-1 > 100 µM | TK-10 > 100 µM | SK-OV-3 > 100 µM | SNB-19 > 100 µM | HT-29 > 100 µM | SF-268 > 100 µM | RPMI-8226 > 100 µM | OVCAR-8 > 100 µM | OVCAR-3 > 100 µM | U-251 > 100 µM | SF-295 > 100 µM | SW-620 > 100 µM | CAKI-1 > 100 µM | SF-539 > 100 µM | UACC-257 > 100 µM

CCOC(=O)N1CCc2cc(OC)c(OC)cc2/C1=C\c1ccc(OC)c(OC)c1
inactive: IGROV-1 45.5 µM | TK-10 25.2 µM | SK-OV-3 54 µM | NCI-H23 39 µM | SNB-19 39.2 µM | HT-29 19 µM | HOP-62 41.6 µM | SF-268 37.8 µM | RPMI-8226 24.4 µM | OVCAR-8 30.1 µM | OVCAR-3 26 µM | HOP-92 15.8 µM | U-251 30.3 µM | SF-295 22.9 µM | NCI-H226 23.4 µM | SW-620 32.7 µM | SF-539 23.2 µM | UACC-257 23.6 µM

COc1ccc(/C=N/C23CC4CC(CC(C4)C2)C3)cc1
inactive: IGROV-1 > 100 µM | TK-10 > 100 µM | SK-OV-3 > 100 µM | NCI-H23 > 100 µM | SNB-19 > 100 µM | HT-29 > 100 µM | HOP-62 > 100 µM | SF-268 > 100 µM | RPMI-8226 > 100 µM | OVCAR-8 > 100 µM | OVCAR-3 > 100 µM | U-251 > 100 µM | SF-295 > 100 µM | NCI-H226 > 100 µM | SW-620 > 100 µM | CAKI-1 > 100 µM | SF-539 > 100 µM | UACC-257 > 100 µM

NCc1cccc(O)c1O
inactive: TK-10 > 100 µM | SK-OV-3 > 100 µM | SNB-19 > 100 µM | HT-29 > 100 µM | HOP-62 > 100 µM | SF-268 > 100 µM | RPMI-8226 > 100 µM | OVCAR-8 > 100 µM | OVCAR-3 > 100 µM | HOP-92 > 100 µM | U-251 > 100 µM | SF-295 > 100 µM | NCI-H226 > 100 µM | SW-620 > 100 µM | CAKI-1 > 100 µM | UACC-257 > 100 µM

O=C1Nc2ccc(Br)cc2/C1=N/Nc1ccc([N+](=O)[O-])cc1[N+](=O)[O-]
inactive: IGROV-1 7.74 µM | TK-10 17.1 µM | SK-OV-3 12.5 µM | NCI-H23 2.49 µM | SNB-19 4.71 µM | HT-29 3.78 µM | HOP-62 5.7 µM | SF-268 4.33 µM | RPMI-8226 2.81 µM | OVCAR-8 3.93 µM | OVCAR-3 5.82 µM | HOP-92 1.98 µM | U-251 4.22 µM | SF-295 3.91 µM | SW-620 3.18 µM | CAKI-1 13.9 µM | UACC-257 3.89 µM

O=C(/C(=N/Nc1ccccc1)c1ccc([N+](=O)[O-])cc1)c1ccc([N+](=O)[O-])cc1
inactive: IGROV-1 > 100 µM | TK-10 > 100 µM | SK-OV-3 > 100 µM | NCI-H23 > 100 µM | SNB-19 > 100 µM | HT-29 20.7 µM | RPMI-8226 93.3 µM | OVCAR-8 > 100 µM | OVCAR-3 > 100 µM | HOP-92 46.2 µM | U-251 > 100 µM | SF-295 32.1 µM | SW-620 > 100 µM | CAKI-1 > 100 µM | SF-539 > 100 µM | UACC-257 > 100 µM

CS(=O)(=O)NNS(=O)(=O)c1cccc([N+](=O)[O-])c1
inactive: IGROV-1 > 100 µM | TK-10 > 100 µM | NCI-H23 > 100 µM | SNB-19 > 100 µM | HT-29 > 100 µM | HOP-62 > 100 µM | RPMI-8226 > 100 µM | OVCAR-8 > 100 µM | U-251 > 100 µM | SF-295 > 100 µM | NCI-H226 > 100 µM | SW-620 > 100 µM | CAKI-1 > 100 µM | SF-539 > 100 µM | UACC-257 > 100 µM

COc1ccc2c(C3(O)CCNCC3)c[nH]c2c1
inactive: IGROV-1 > 100 µM | TK-10 > 100 µM | SK-OV-3 > 100 µM | NCI-H23 > 100 µM | SNB-19 > 100 µM | HT-29 > 100 µM | HOP-62 > 100 µM | SF-268 > 100 µM | RPMI-8226 > 100 µM | OVCAR-8 > 100 µM | OVCAR-3 > 100 µM | HOP-92 > 100 µM | U-251 > 100 µM | SF-295 > 100 µM | SW-620 > 100 µM | CAKI-1 > 100 µM | SF-539 > 100 µM

BrC1=CCC23CC=C(Br)[C@H]4CC2(COC3)C[C@@H]1O4 (stereo partly drawn)
inactive: IGROV-1 > 100 µM | TK-10 80.2 µM | NCI-H23 37.2 µM | SNB-19 37.9 µM | HT-29 > 10 µM | HOP-62 > 100 µM | SF-268 16.9 µM | RPMI-8226 39.6 µM | OVCAR-8 63.8 µM | OVCAR-3 63.5 µM | U-251 79.3 µM | SF-295 > 100 µM | NCI-H226 44.1 µM | SW-620 55 µM | SF-539 84.9 µM

COC(=O)/C=C1\CCC(C)O1 (stereo not drawn)
inactive: IGROV-1 > 100 µM | TK-10 > 100 µM | SK-OV-3 > 100 µM | NCI-H23 > 100 µM | SNB-19 > 100 µM | HT-29 > 100 µM | HOP-62 > 100 µM | SF-268 > 100 µM | RPMI-8226 > 100 µM | OVCAR-8 > 100 µM | OVCAR-3 > 100 µM | HOP-92 24 µM | U-251 > 100 µM | SF-295 > 100 µM | SW-620 > 100 µM | CAKI-1 > 100 µM | SF-539 > 100 µM | UACC-257 > 100 µM

CCCCC#COS(=O)(=O)c1ccc(C)cc1
inactive: IGROV-1 > 100 µM | SK-OV-3 88.7 µM | NCI-H23 92.9 µM | SNB-19 > 100 µM | HT-29 > 100 µM | HOP-62 > 100 µM | SF-268 > 100 µM | RPMI-8226 46.2 µM | OVCAR-8 > 100 µM | OVCAR-3 > 100 µM | U-251 86.5 µM | SF-295 > 100 µM | NCI-H226 14.7 µM | SW-620 > 100 µM | CAKI-1 > 100 µM | SF-539 > 100 µM | UACC-257 > 100 µM

COC(OC)c1cccc2c1C(=O)CCC1(O)c3ccccc3C1C2 (stereo not drawn)
inactive: IGROV-1 > 100 µM | TK-10 > 100 µM | SK-OV-3 > 100 µM | NCI-H23 78.9 µM | SNB-19 > 100 µM | HT-29 > 100 µM | HOP-62 > 100 µM | SF-268 > 100 µM | RPMI-8226 12.2 µM | OVCAR-8 > 100 µM | OVCAR-3 7.52 µM | SF-295 42.1 µM | NCI-H226 83.8 µM | SW-620 > 100 µM | SF-539 > 100 µM | UACC-257 84.1 µM
